Results from patent publication US20240400596A1, “PLATINUM-BASED PHOTOINITIATOR AND PHOTOCROSSLINKER, THEIR USE FOR ADDUCT FORMATION” (City University of Hong Kong, priority 2023, published 2024).

Tests used:
[1] = Dark stability of cisPt(IV)-1, by HPLC; type: physicochemical; conditions: in the dark for about 30 min, free or mixed with radical spin traps
Method: 1 mM cisPt(IV)-1 (Pt(IV) complex of Formula (IIa)) and cisplatin in water was mixed with 1 or 10 mM DMPO or TEMPO. The mixed solution was irradiated with UV or kept in the dark for 10 min. The solution was analyzed by HPLC. The Pt(I) adduct products were characterized by ESI-HRMS, and the acetate radical adduct was separated and characterized by proton NMR. For the study of photolysis rate, the solution was irradiated with UV (365 nm, 9.8 mW/cm^2) for 0.5, 1, 2, 3, 4, 5 and 10 min, with or without the radical spin trap and analyzed by HPLC. For the study of dark stability, the solution was incubated at room temperature in the dark for 30 min before examined by HPLC.

[2] = Photolysis of Pt complexes in water under UV, by RP-HPLC; type: physicochemical; conditions: 1 mM in water, 365 nm, 9.8 mW/cm^2, 10 min
Method: The photolysis of Pt complexes in test tubes was examined by reversed-phase high performance liquid chromatography (RP-HPLC). 1 mM Pt complexes were dissolved in water. Then the mixed solution was irradiated with UV light (365 nm, 9.8 mW/cm^2) for 10 min at room temperature, and the solution was examined by HPLC. The percentage of remained Pt complexes was obtained from the ratio of the peak area of Pt complexes upon irradiation to that of the intact Pt complexes.

## CC(=O)[O][Pt]([NH2])([NH2])([Cl])([Cl])[O]C(C)=O [cisPt(IV)-1]
[1]
  stability in the dark: remained intact

## O=C1[O][Pt]2([NH][C@@H]3CCCC[C@H]3[NH]2)[O]C1=O [oxaliplatin]
[2]
  percentage of intact Pt complex remaining upon irradiation: 99%
